Literature values as cited in patent US9029598B2 (Colgate-Palmolive Company, priority 2009, dated 2015).

Details: room temperature, natural partial pressure (3.5×10^−4 atmosphere)

O=C=O [Carbon dioxide]
maximum concentration of carbon dioxide in water: 12 µM
